The subject of test [1] is THP1-Dual cells (ISG54 promoter Lucia luciferase reporter). The test is described as follows: THP-1 Dual Lucia Reporter Gene Assay. The settings on record: Lucia luciferase signal induction, 20 hours at 37° C., read-out: Cellular THP 1 EC50. The format is cell-based, human. The protocol: THP1-Dual™ cells (InvivoGen #thpd-nfis) were derived from the human THP-1 monocyte cell line by stable integration of the Lucia luciferase gene, a secreted luciferase reporter gene, under the control of an ISG54 (interferon-stimulated gene) minimal promoter in conjunction with five interferon (IFN)-stimulated response elements. […] The cell plates were dosed with 62.5 nL of the testing compounds, and then incubated at 37° C. for 20 hours. At the end of the incubation, 15 μL/well of the QUANTI-Luc™ (InvivoGen #rep-q1c1) were added, and luminescence was measured immediately using the LeadSeeker.
Compound concentration versus percent signal induction curves were fitted to generate EC50 values.

The target of test [2] is Human STING (residues 140-379, H232R) (Homo sapiens (Human), UniProt Q86WV6, H232R). The test is described as follows: Human STING TR-FRET Assay. The conditions noted are these: read-out: Enz-TR-Fret IC50, fluorescein labeled ligand 100 nM, STING protein 100 nM, 60 minutes at rt.
Description: The sequence was verified before recombinant protein expression using E. coli expression system.
For expression, STING expression vector was transformed into BL21(DE3) cells. The expression was induced by adding IPTG and expressing in 16° C. for 20 hours.
Biotinylation was confirmed by Mass Spectrometry analysis.
Then 2 uL STING assay buffer containing STING protein (100 nM final) was added and the mixture was incubated at rt for 60 minutes. The plates were then read on a BMG PheraStar Plus reader (LanthaScreen module).
For the assay method described above, test compound percent inhibition, at various concentrations, was calculated relative to untreated and DMSO only treated samples. Compound concentration versus percent inhibition curves were fitted to generate IC50 values.

Like-named read-outs stand apart in the source and are kept apart here.

Sequence of Human STING (residues 140-379, H232R) (Q86WV6 140-379 H232R): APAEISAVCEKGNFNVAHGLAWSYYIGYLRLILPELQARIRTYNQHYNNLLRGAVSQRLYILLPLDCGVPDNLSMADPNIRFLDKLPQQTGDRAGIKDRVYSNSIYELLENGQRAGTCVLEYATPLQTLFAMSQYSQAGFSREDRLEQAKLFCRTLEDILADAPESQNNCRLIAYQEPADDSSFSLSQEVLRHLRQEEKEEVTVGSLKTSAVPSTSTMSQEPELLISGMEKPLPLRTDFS

Regarding `Nc1nc2c(ncn2[C@@H]2O[C@@H]3COP(=O)(O)O[C@@H]4[C@@H](COP(=O)(S)O[C@@H]2[C@@H]3O)C[C@@H](Nc2ncncn2)[C@@H]4F)c(=O)[nH]1` (single isomer, unassigned) [Compound I-42], the EC50 in test [1] (Homo sapiens, THP1-Dual, 20 h) fell in the range of 1 to 10 µM. Further, in test [2], the half-maximal inhibitory concentration (IC50) is less than 1 µM.

In the case of `Nc1nc2c(ncn2[C@@H]2O[C@@H]3COP(=O)(O)O[C@H]4C[C@H](Oc5ccncn5)C[C@@H]4COP(=O)(O)O[C@@H]2[C@@H]3O)c(=O)[nH]1` [Compound I-10, 2-amino-9-[(5R,7R,8R,12aR,14R,15aS,16R)-2,10,16-trihydroxy-2,10-dioxido-14-(pyrimidin-4-yloxy)decahydro-5,8-methanocyclopenta[1][1,3,6,9,11,2,10]pentaoxadiphosphacyclotetradecin-7-yl]-1,9-dihydro-6H-purin-6-one], the EC50 in test [1] (Homo sapiens, THP1-Dual, 20 h) lay in the range of 1 to 10 µM. Further, the concentration for half-maximal inhibition (IC50) in test [2] is less than 1 µM.

Turning to `Nc1nc2c(ncn2[C@@H]2O[C@@H]3COP(=O)(S)O[C@@H]4[C@@H](COP(=O)(S)O[C@@H]2[C@@H]3F)C[C@@H](Nc2ccncn2)[C@@H]4F)c(=O)[nH]1` (stereo partly drawn) [Compound I-38a, 2-amino-9-[(2S,5R,7R,8S,10S,12aR,14R,15S,15aR,16R)-15,16-difluoro-2,10-dioxido-14-(pyrimidin-4-ylamino)-2,10-disulfanyldecahydro-5,8-methanocyclopenta[1][1,3,6,9,11,2,10]pentaoxadiphosphacyclotetradecin-7-yl]-1,9-dihydro-6H-purin-6-one], the EC50 in test [1] (Homo sapiens, THP1-Dual, 20 h) lay in the range of 1 to 10 µM. For the same compound, in test [2], the half-inhibitory concentration (IC50) is less than 1 µM.

For the compound `Nc1nc2c(ncn2[C@@H]2O[C@@H]3COP(=O)(S)O[C@H]4C[C@H](Nc5ncncc5F)C[C@@H]4COP(=O)(S)O[C@@H]2[C@@H]3O)c(=O)[nH]1` (stereo partly drawn) [Compound I-34b, 2-amino-9-{(2S,5R,7R,8R,10S,12aR,14R,15aS,16R)-14-[(5-fluoropyrimidin-4-yl)amino]-16-hydroxy-2,10-dioxido-2,10-disulfanyldecahydro-5,8-methanocyclopenta [1][1,3,6,9,11,2,10]pentaoxadiphosphacyclotetradecin-7-yl}-1,9-dihydro-6H-purin-6-one], the EC50 in test [1] is 1 to 10 µM. In addition, the half-inhibitory concentration (IC50) in test [2] is less than 1 µM.

With `Nc1nc2c(ncn2[C@@H]2O[C@@H]3COP(=O)(O)O[C@H]4C[C@H](Nc5ncncn5)C[C@@H]4COP(=O)(O)O[C@@H]2[C@@H]3O)c(=O)[nH]1` [Compound I-27, 2-amino-9-[(5R,7R,8R,12aR,14R,15aS,16R)-2,10,16-trihydroxy-2,10-dioxido-14-(1,3,5-triazin-2-ylamino)decahydro-5,8-methanocyclopenta[1][1,3,6,9,11,2,10]pentaoxadiphosphacyclotetradecin-7-yl]-1,9-dihydro-6H-purin-6-one], the EC50 in test [1] (Homo sapiens, THP1-Dual, 20 h) was in the range of 10 to 25 µM. Further, the IC50 in test [2] is less than 1 µM.

On to `Nc1nc2c(ncn2[C@@H]2O[C@@H]3COP(=O)(S)O[C@@H]4[C@@H](COP(=O)(S)O[C@@H]2[C@@H]3O)C[C@@H](Oc2ccncn2)[C@@H]4F)c(=O)[nH]1` (single isomer, unassigned) [Compound I-39a], for which the EC50 in test [1] (Homo sapiens, THP1-Dual, 20 h) is 1 to 10 µM. Further, the half-maximal inhibitory concentration (IC50) in test [2] is less than 1 µM.

On to `Nc1nc2c(ncn2[C@@H]2O[C@@H]3COP(=O)(O)O[C@@H]4[C@@H](COP(=O)(O)O[C@@H]2[C@@H]3O)C[C@@H](Nc2ncncn2)[C@@H]4F)c(=O)[nH]1` [Compound I-40, 2-amino-9-[(5R,7R,8R,12aR,14R,15S,15aR,16R)-15-fluoro-2,10,16-trihydroxy-2,10-dioxido-14-(1,3,5-triazin-2-ylamino)decahydro-5,8-methanocyclopenta[1][1,3,6,9,11,2,10]pentaoxadiphosphacyclotetradecin-7-yl]-1,9-dihydro-6H-purin-6-one], for which the half-maximal effective concentration (EC50) in test [1] (Homo sapiens, THP1-Dual, 20 h) fell in the range of 10 to 25 µM. Besides, the concentration for half-maximal inhibition (IC50) in test [2] was less than 1 µM.

Turning to `Nc1nc2c(ncn2[C@@H]2O[C@@H]3COP(=O)(S)O[C@H]4C[C@H](Oc5ccncn5)C[C@@H]4COP(=O)(O)O[C@@H]2[C@@H]3O)c(=O)[nH]1` (stereo partly drawn) [Compound I-17, 2-amino-9-[(2S,5R,7R,8R,12aR,14R,15aS,16R)-10,16-dihydroxy-2,10-dioxido-14-(pyrimidin-4-yloxy)-2-sulfanyldecahydro-5,8-methanocyclopenta[1][1,3,6,9,11,2,10]pentaoxadiphosphacyclotetradecin-7-yl]-1,9-dihydro-6H-purin-6-one], the concentration for a half-maximal effect (EC50) in test [1] (Homo sapiens, THP1-Dual, 20 h) lay within 1 to 10 µM. Further, the IC50 in test [2] was less than 1 µM.

Turning to `Nc1nc2c(ncn2[C@@H]2O[C@@H]3COP(=O)(S)O[C@@H]4[C@@H](COP(=O)(S)O[C@@H]2[C@@H]3O)C[C@@H](Nc2ncncn2)[C@@H]4F)c(=O)[nH]1` (single isomer, unassigned) [Compound I-45], the concentration giving a half-maximal response (EC50) in test [1] (Homo sapiens, THP1-Dual, 20 h) fell in the range of 1 to 10 µM. Moreover, the IC50 in test [2] is less than 1 µM.

In the case of `Nc1nc2c(ncn2[C@@H]2O[C@@H]3COP(=O)(S)O[C@H]4C[C@H](Nc5ncncc5F)C[C@@H]4COP(=O)(S)O[C@@H]2[C@@H]3O)c(=O)[nH]1` (stereo partly drawn) [Compound I-34a, 2-amino-9-{(2S,5R,7R,8R,10S,12aR,14R,15aS,16R)-14-[(5-fluoropyrimidin-4-yl)amino]-16-hydroxy-2,10-dioxido-2,10-disulfanyldecahydro-5,8-methanocyclopenta[1][1,3,6,9,11,2,10]pentaoxadiphosphacyclotetradecin-7-yl}-1,9-dihydro-6H-purin-6-one], the EC50 in test [1] (Homo sapiens, THP1-Dual, 20 h) is less than 1 µM. Moreover, the 50% inhibitory concentration (IC50) in test [2] is less than 1 µM.

Regarding `Nc1nc2c(ncn2[C@@H]2O[C@@H]3COP(=O)(O)O[C@@H]4[C@@H](COP(=O)(S)O[C@@H]2[C@@H]3F)C[C@@H](Nc2ccncn2)[C@@H]4F)c(=O)[nH]1` (stereo partly drawn) [Compound I-24a, 2-amino-9-[(5R,7R,8S,10S,12aR,14R,15S,15aR,16R)-15,16-difluoro-2-hydroxy-2,10-dioxido-14-(pyrimidin-4-ylamino)-10-sulfanyldecahydro-5,8-methanocyclopenta[1][1,3,6,9,11,2,10]pentaoxadiphosphacyclotetradecin-7-yl]-1,9-dihydro-6H-purin-6-one], in test [1] (Homo sapiens, THP1-Dual, 20 h), the EC50 lay within 1 to 10 µM. Also, the half-maximal inhibitory concentration (IC50) in test [2] was less than 1 µM.

As to `Nc1nc2c(ncn2[C@@H]2O[C@@H]3COP(=O)(S)O[C@@H]4[C@@H](COP(=O)(O)O[C@@H]2[C@@H]3O)C[C@@H](Nc2ncncn2)[C@@H]4F)c(=O)[nH]1` (single isomer, unassigned) [Compound I-43], the concentration for a half-maximal effect (EC50) in test [1] (Homo sapiens, THP1-Dual, 20 h) is 1 to 10 µM.

Consider `Nc1nc2c(ncn2[C@@H]2O[C@@H]3COP(=O)(S)O[C@H]4C[C@H](Nc5ccncn5)C[C@@H]4COP(=O)(O)O[C@@H]2[C@@H]3O)c(=O)[nH]1` (stereo partly drawn) [Compound I-18, 2-amino-9-[(2S,5R,7R,8R,12aR,14R,15aS,16R)-10,16-dihydroxy-2,10-dioxido-14-(pyrimidin-4-ylamino)-2-sulfanyldecahydro-5,8-methanocyclopenta[1][1,3,6,9,11,2,10]pentaoxadiphosphacyclotetradecin-7-yl]-1,9-dihydro-6H-purin-6-one], for which the EC50 in test [1] (Homo sapiens, THP1-Dual, 20 h) fell in the range of 1 to 10 µM. The IC50 in test [2] was less than 1 µM.

For the compound `Nc1nc2c(ncn2[C@@H]2O[C@@H]3COP(=O)(S)O[C@@H]4[C@@H](COP(=O)(O)O[C@@H]2[C@@H]3F)C[C@@H](Nc2ccncn2)[C@@H]4F)c(=O)[nH]1` (stereo partly drawn) [Compound I-21, 2-amino-9-[(2S,5R,7R,8S,12aR,14R,15S,15aR,16R)-15,16-difluoro-10-hydroxy-2,10-dioxido-14-(pyrimidin-4-ylamino)-2-sulfanyldecahydro-5,8-methanocyclopenta[1][1,3,6,9,11,2,10]pentaoxadiphosphacyclotetradecin-7-yl]-1,9-dihydro-6H-purin-6-one], the EC50 in test [1] (Homo sapiens, THP1-Dual, 20 h) lay within 1 to 10 µM. In test [2], the IC50 is less than 1 µM.

Regarding `Nc1nc2c(ncn2[C@@H]2O[C@@H]3COP(=O)(O)O[C@@H]4[C@@H](COP(=O)(O)O[C@@H]2[C@@H]3O)C[C@@H](Nc2ccncn2)[C@@H]4F)c(=O)[nH]1` [Compound I-46, 2-amino-9-[(5R,7R,8R,12aR,14R,15S,15aR,16R)-15-fluoro-2,10,16-trihydroxy-2,10-dioxido-14-(pyrimidin-4-ylamino)decahydro-5,8-methanocyclopenta[1][1,3,6,9,11,2,10]pentaoxadiphosphacyclotetradecin-7-yl]-1,9-dihydro-6H-purin-6-one], the 50% effective concentration (EC50) in test [1] (Homo sapiens, THP1-Dual, 20 h) fell in the range of 10 to 25 µM. The 50% inhibitory concentration (IC50) in test [2] was less than 1 µM.

`Nc1nc2c(ncn2[C@@H]2O[C@@H]3COP(=O)(S)O[C@@H]4[C@@H](COP(=O)(S)O[C@@H]2[C@@H]3O)C[C@@H](Oc2ccncn2)[C@@H]4F)c(=O)[nH]1` (single isomer, unassigned) [Compound I-39b]: in test [1], the EC50 was less than 1 µM. In addition, in test [2], the IC50 was less than 1 µM.
